Experimental data from ChEMBL document CHEMBL1201862, “PubChem BioAssay data set” (2004).
Activity calls are given as the source filed them.

Legend:
[1] = MC4R antagonists, dose response, counter-screen for LGR2 antagonist project, cell-based, plate reader, cherry pick (AID 743444); assay type: functional;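 note: transfected HEK 293 cells stimulated with alpha-MSH peptide; potency of inhibitors of the alpha-MSH evoked signal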
[2] = HEK293 cell cytotoxicity, dose response, cytotoxicity control, plate reader, cherry-picked samples (AID 743446); assay type: functional, cell-based
[3] = target: T1, Oxysterols receptor LXR-beta (Homo sapiens, UniProt P55055); assay type: functional, cell-based;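 note: Cell-based luminescence dose-response assay of agonist activity at LXR, run as a confirmatory counterscreen to a daf-12 agonist screen; HEK293 cells with Gal4-LXR fusion and GAL4-driven luciferase reporter; agonist potency from rising luciferase signal of a Gal4-LXR reporter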
T1 sequence (P55055 whole entry): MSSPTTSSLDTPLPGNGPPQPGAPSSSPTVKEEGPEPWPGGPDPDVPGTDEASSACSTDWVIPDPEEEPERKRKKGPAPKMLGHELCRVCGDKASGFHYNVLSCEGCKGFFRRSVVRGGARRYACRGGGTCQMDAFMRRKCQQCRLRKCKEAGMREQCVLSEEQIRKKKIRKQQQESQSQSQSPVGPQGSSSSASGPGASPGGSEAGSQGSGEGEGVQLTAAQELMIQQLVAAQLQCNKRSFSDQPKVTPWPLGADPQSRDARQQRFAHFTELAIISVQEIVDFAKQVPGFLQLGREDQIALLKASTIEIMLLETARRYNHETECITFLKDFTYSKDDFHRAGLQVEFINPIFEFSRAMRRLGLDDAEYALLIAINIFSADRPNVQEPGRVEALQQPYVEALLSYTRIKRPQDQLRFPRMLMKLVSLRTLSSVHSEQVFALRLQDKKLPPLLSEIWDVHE

[4] = A549 cell cytotoxicity, dose response, cytotoxicity control, plate reader, cherry-pick, antagonist series (AID 743412); assay type: functional, cell-based
[5] = HepG2 cell cytotoxicity, dose response, cytotoxicity control, plate reader, cherry-pick, antagonist series (AID 743416); assay type: functional, cell-based
[6] = LGR2 antagonists, dose response, cell-based, HEK293, CRE-luciferase reporter, cherry pick, set 2 (AID 743343); assay type: functional;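 note: transfected cells were stimulated with diluted bursicon conditioned medium after compound addition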
[7] = cells
[8] = P. falciparum Dd2 growth inhibitors, dose response, SYBR Green, dry powder samples (AID 1159566); assay type: functional, cell-based;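 note: potency for growth inhibition with lower SYBR green DNA signal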
[9] = P. falciparum Dd2 growth inhibitors, dose response, SYBR Green, cherry-picked samples (AID 1159567); assay type: functional, cell-based
[10] = P. falciparum ATP4 D1247Y mutant growth inhibitors, dose response, NITD609-resistant line, SYBR Green, dry powder (AID 1159571); assay type: functional, cell-based;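 note: parasites synchronized at ring stage by sorbitol before testing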
[11] = P. falciparum 3D7-ScDHODH growth inhibitors, dose response, SYBR Green, dry powder samples (AID 1159570); assay type: functional, cell-based;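 note: parasite growth measured after 72 hours of compound exposure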
[12] = P. falciparum Dd2 growth inhibitors, dose response, SYBR Green, dry powder samples, set 9 (AID 1159568); assay type: functional, cell-based
[13] = cytotoxicity in OVCAR8 ovarian cancer cells, dose response, PAX8 project, cell-based, plate reader, dry powder samples (AID 743197); assay type: functional; conditions: OVCAR-8
[14] = NIH:OVCAR-3 ovarian cancer cell cytotoxicity, dose response, PAX8 inhibitor project, plate reader, dry powder samples (AID 743044); assay type: functional, cell-based
[15] = target: Paired box protein Pax-8 (Homo sapiens, UniProt Q06710); test: inhibitors of PAX8-driven TPO luciferase reporter, dose response, RMG-I cells, cherry-pick (AID 687027); assay type: functional, cell-based;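 note: luciferase reporter driven by Pax8 target thyroperoxidase promoter measured by SteadyGlo luminescence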
[16] = target: T2, Sentrin-specific protease 6 (Homo sapiens, UniProt Q9GZR1); assay type: functional;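 note: Luminescence-based dose-response confirmatory assay of SENP6 inhibition, following up an ultra-high-throughput screen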
T2 sequence (Q9GZR1 whole entry): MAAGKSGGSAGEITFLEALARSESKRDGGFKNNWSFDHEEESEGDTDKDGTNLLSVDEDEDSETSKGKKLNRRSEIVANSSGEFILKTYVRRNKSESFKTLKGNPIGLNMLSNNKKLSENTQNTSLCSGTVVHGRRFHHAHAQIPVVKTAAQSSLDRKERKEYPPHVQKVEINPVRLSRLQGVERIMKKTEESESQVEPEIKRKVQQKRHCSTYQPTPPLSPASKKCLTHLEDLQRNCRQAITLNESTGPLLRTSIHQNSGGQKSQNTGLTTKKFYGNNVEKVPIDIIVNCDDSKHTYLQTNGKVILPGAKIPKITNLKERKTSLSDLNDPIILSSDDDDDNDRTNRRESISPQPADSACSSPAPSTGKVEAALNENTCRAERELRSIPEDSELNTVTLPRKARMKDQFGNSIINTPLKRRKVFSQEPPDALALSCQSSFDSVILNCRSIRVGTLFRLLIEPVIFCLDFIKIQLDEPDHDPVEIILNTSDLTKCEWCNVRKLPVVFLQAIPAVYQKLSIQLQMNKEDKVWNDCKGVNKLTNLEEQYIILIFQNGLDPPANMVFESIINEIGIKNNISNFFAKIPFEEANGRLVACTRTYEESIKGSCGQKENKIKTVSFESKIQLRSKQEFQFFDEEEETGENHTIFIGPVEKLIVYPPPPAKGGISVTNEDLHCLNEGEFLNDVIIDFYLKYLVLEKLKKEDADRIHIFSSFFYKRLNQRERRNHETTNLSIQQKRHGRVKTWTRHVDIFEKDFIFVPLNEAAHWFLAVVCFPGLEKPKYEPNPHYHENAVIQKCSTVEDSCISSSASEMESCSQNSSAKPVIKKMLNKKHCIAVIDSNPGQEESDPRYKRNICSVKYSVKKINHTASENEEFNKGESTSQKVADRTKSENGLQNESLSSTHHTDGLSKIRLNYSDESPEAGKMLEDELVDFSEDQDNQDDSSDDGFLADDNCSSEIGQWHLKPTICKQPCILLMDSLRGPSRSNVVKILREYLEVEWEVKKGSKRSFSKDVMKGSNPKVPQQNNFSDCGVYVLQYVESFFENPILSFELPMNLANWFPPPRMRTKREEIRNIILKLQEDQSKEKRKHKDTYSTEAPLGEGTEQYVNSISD

[17] = target: T3, Caspase-3 (Homo sapiens, UniProt P42574); assay type: functional;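 note: Dose-response selectivity test against caspase-3 for candidate inhibitors of sentrin-specific proteases (SENPs)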
T3 sequence (P42574 whole entry): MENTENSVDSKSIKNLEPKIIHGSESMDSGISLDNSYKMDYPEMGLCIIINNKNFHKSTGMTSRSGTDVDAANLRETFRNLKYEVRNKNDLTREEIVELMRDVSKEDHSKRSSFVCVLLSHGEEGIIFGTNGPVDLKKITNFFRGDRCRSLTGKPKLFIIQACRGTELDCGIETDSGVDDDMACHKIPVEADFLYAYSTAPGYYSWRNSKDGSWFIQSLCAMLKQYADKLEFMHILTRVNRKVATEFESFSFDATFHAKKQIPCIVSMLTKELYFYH

[18] = target: T4, Sentrin-specific protease 7 (Homo sapiens, UniProt Q9BQF6); assay type: functional;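 note: Luminescence-based dose-response confirmation of ultra-high-throughput screening hits, measuring inhibition of SENP7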
T4 sequence (Q9BQF6 whole entry): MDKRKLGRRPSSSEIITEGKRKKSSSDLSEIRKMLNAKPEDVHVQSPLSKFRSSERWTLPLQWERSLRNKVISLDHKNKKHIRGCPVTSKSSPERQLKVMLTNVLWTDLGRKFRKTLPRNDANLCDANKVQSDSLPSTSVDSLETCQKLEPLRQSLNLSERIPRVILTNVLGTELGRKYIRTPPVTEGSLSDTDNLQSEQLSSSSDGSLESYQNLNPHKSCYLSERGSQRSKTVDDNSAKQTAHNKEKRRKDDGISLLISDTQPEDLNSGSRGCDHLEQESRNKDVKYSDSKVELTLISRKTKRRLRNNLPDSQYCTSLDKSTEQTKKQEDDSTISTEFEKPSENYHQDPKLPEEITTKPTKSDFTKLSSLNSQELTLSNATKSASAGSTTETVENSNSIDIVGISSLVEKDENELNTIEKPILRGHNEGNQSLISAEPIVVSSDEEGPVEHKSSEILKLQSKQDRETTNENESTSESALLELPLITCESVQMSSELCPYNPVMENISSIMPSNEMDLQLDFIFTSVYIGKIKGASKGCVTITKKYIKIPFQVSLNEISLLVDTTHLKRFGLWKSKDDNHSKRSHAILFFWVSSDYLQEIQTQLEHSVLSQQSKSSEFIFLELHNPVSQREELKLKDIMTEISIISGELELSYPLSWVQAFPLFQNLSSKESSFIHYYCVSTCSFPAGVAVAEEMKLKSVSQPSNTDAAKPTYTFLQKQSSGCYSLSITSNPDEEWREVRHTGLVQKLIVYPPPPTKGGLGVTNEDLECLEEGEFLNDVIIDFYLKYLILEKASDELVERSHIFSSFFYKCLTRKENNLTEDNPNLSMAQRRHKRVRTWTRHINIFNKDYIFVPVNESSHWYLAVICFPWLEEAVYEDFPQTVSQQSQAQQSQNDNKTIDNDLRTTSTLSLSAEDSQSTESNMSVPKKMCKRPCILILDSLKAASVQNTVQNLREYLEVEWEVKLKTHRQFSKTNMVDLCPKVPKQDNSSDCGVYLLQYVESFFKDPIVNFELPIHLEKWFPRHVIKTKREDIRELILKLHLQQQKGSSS

[19] = target: T5, Sentrin-specific protease 8 (Homo sapiens, UniProt Q96LD8); assay type: functional;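 note: luminescence read-out of SENP8 inhibition, dose-response confirmation following an ultra-high-throughput screen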
T5 sequence (Q96LD8 whole entry): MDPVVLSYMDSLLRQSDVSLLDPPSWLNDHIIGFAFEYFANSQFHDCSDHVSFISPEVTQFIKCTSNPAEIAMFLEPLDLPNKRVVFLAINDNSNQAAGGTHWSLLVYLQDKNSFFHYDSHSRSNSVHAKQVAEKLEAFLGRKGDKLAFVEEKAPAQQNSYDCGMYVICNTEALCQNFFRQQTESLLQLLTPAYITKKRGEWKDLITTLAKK

[20] = target: T6, fMet-Leu-Phe receptor (Homo sapiens, UniProt P21462); test: FPR ligands, dose response (AID 519); assay type: functional
T6 sequence (P21462 whole entry): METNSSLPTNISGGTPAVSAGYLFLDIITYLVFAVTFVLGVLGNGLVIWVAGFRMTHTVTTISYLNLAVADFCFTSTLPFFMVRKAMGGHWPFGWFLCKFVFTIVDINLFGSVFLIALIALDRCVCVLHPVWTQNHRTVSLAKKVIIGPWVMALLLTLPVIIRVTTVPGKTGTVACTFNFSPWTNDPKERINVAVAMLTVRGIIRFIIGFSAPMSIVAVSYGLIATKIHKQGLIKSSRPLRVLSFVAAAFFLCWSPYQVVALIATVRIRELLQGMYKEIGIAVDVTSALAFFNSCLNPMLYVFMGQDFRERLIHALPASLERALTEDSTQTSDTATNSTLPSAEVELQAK

Paired box protein Pax-8, sequence (Q06710 whole entry): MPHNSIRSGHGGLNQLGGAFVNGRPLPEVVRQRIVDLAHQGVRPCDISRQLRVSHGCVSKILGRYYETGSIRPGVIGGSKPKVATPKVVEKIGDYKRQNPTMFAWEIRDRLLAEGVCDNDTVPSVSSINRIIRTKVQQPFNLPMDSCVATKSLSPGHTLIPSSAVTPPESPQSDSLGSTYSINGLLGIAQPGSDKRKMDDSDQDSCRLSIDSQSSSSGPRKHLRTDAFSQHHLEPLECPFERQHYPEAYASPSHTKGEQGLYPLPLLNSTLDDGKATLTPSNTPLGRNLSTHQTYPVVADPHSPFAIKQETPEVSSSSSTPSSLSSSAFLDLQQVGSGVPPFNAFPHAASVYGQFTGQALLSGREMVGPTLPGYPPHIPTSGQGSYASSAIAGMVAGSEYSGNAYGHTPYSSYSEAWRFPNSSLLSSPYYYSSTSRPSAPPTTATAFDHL

In the case of `NC(=O)c1ccsc1NC(=O)c1ccc2c(c1)CCCC2`, the AC50 [1] is reported as 15.2 µM (active), the AC50 [2] is reported as 31.4 µM (active) and the EC50 [3] is reported as > 67.5 µM (inactive). For the same molecule, the AC50 [4] was 14.1 µM (active), the AC50 [5] was 42.4 µM (active) and the AC50 [6] was 9.99 µM (active). The EC50 [7] was > 67.5 µM (inactive).

In the case of `COc1ccc(C#Cc2ccc3c(c2)O[C@@H](CN(C)C(=O)Nc2cccc(OC)c2)[C@@H](C)CN([C@H](C)CO)S3(=O)=O)cc1`, the AC50 [8] is reported as 490 nM (active), the AC50 [9] is reported as 1.07 µM (active) and the AC50 [10] is reported as 494 nM (active). For the same molecule, the AC50 [11] was 473 nM (active) and the AC50 [12] was 466 nM (active).

For `C[C@@H]1CN([C@H](C)CO)C(=O)c2cc(NC(=O)Nc3ccc(F)cc3)ccc2O[C@@H](C)CCCCO[C@H]1CN(C)C(=O)Nc1ccc(C(F)(F)F)cc1`, the AC50 [13] was 39.3 µM (active), the AC50 [14] was 35 µM (active) and the AC50 [15] was 5.23 µM (active).

For `NC(=O)c1c(NC(=O)c2ccccc2)sc2c1CCC2`, the IC50 [16] was > 100 µM (inactive), the EC50 [3] was > 67.5 µM (inactive) and the IC50 [17] was 27.7 µM (active). For the same molecule, the IC50 [18] was 7.52 µM (active), the IC50 [19] was > 100 µM (inactive) and the EC50 [7] was > 67.5 µM (inactive).

In the case of `CCOC(=O)c1c(C)[nH]c(/C=N/c2ccccc2)c1O`, the Ki [20] is reported as > 66.7 µM (inactive).
